This note sets out measurements from paper PMC3790851, “Improved Mass Spectrometry Assay For Plasma Hepcidin: Detection and Characterization of a Novel Hepcidin Isoform” (PLoS ONE, 2013).

In general, EC50 refers to the concentration giving half of the maximal effect.

For data set [1], the target named is T1, green fluorescent protein (GFP)-fused human ferroportin (Homo sapiens, UniProt Q9NP59).
T1 construct: expressed in transfected cells
T1 sequence (Q9NP59 1-571): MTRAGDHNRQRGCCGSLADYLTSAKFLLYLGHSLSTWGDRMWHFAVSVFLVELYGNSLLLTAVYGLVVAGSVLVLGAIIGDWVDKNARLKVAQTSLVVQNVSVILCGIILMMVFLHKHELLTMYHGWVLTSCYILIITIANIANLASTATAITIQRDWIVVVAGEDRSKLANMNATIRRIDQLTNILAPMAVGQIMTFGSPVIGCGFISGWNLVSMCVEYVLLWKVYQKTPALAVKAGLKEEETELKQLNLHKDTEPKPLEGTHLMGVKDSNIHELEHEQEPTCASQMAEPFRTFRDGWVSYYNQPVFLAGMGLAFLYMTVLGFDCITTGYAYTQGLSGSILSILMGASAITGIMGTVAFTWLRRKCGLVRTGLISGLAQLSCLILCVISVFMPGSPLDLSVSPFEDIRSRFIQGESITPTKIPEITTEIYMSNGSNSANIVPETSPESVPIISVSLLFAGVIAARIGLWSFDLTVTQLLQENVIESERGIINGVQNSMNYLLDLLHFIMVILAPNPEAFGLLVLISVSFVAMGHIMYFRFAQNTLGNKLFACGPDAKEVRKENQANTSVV
Kind of data set: Hepcidin bioactivity assay: GFP-ferroportin internalization and degradation. In kind it is cell-based. To be noted: for potency as inducer of ferroportin degradation: synthetic peptides, compared with hepcidin-25. The text has this: A stable cell line engineered for inducible expression of green fluorescent protein (GFP)-fused human ferroportin was used as a test system to determine hepcidin-24 activity relative to hepcidin-25, 22 and 20. In this cell system, ferroportin internalization and degradation provided a means to quantify hepcidin activity. The assay was implemented basically as described by Nemeth et al., [33] except that fluorescence was quantified in triplicate wells on a microplate reader. To determine EC50 values for hepcidin-25 and hepcidin-24, a curve was fitted by nonlinear regression with a four parameter logistic equation using Prism v5 (GraphPad).
Figure 5 Hepcidin-mediated ferroportin internalization. Different concentrations of synthetic hepcidin-25, -24, -22 and -20 (indicated in nM on the horizontal axis) were added to the growth medium of a stable cell line that expresses green fluorescent protein-fused ferroportin (GFP-FPN). Hepcidin-mediated GFP-FPN internalization and degradation was quantified by measuring cellular fluorescence levels in arbitrary units.

Data set [2] is described as follows: Stability of hepcidin in plasma/serum at room temperature (WCX-TOF MS). Format: in vitro ADME, human. Conditions: for Hepcidin level after one week at RT / Hepcidin level after one day at RT: % of fresh sample, human heparin plasma, 19 IC patients + 5 controls, results <1.0 nM removed, WCX-TOF MS, hepcidin-25^+40 internal standard, n = 24/15/13/18/11; for Hepcidin level after one week at RT: CV (Hep-25/-24/-22/-20/Total) 23/29/29/38/17; for Hepcidin level after one day at RT: CV (Hep-25/-24/-22/-20/Total) 8/21/14/25/5; for Hepcidin level after one week at RT, without protease inhibitors / Hepcidin level after one day at RT, without protease inhibitors: results <1 nM excluded; for Hepcidin level after one week at RT, without protease inhibitors: CV (Hep-25/-24/-22/-20) 30/31/23/41; for Hepcidin level after one day at RT, without protease inhibitors: CV (Hep-25/-24/-22/-20) 13/20/11/11; for remaining at 168 h / remaining at 1 day: human; for remaining at 168 h: read-out: Hepcidin level after one week at RT, with protease inhibitors; for remaining at 1 day: read-out: Hepcidin level after one day at RT, with protease inhibitors. Here is the method: Spectra were analyzed by using Bruker Daltonics FlexAnalysis software.
To assess the stability of hepcidin in serum and plasma matrices, we kept samples from intensive care patients (n = 20) and healthy controls (n = 5) at room temperature for 0–7 days followed by WCX-TOF MS analysis using the hepcidin-25^+40 internal standard. […] For the samples at day 1 and day 7, the mean decrease in hepcidin-25 for the 5 controls and 20 intensive care patients was 90% (CV, 8% ) and 55% (CV, 23%), respectively (Table 3).

The conditions of data set [3]: average, % of fresh, 10 IC patients and 5 controls; for Hepcidin level after one day at 4°C, EDTA plasma: CV (Hep-25/-24/-22/-20) 11/6/11/22.
Description: (§1) Samples were used for measurement of hepcidin between 4–7 hrs after blood drawing and/or pooled and/or stored in aliquots at various temperatures for prolonged periods of time.
(§2) Fresh samples were measured within 2–4 hrs hours after blood drawing and stored in aliquots at various temperatures for prolonged incubation.
(§3) Mass-to-charge (m/z) spectra were generated by using MALDI-TOF MS (Microflex LT, Bruker Daltonics). Spectra were analyzed by using Bruker Daltonics FlexAnalysis software. […] Total hepcidin concentration was defined as the sum of hepcidin-25, -24, -22, and -20 concentrations.
(§4) Using the novel heavy hepcidin-25 internal standard, we assessed changes in hepcidin-25 and the smaller isoforms in various samples containing various anticoagulants ex vivo at room temperature (RT), 4°C, −20°C and −80°C. More specifically, changes in hepcidin concentrations relative to those found in freshly collected samples were determined i) at storage at RT and 4°C on day 0 (fresh samples), 1 (14–22 hrs), 2, 3, and 7 days after sampling/storage, ii) at −20°C after 1 week, and after 1, 4 and 6 months of storage and iii) at −80°C at after 6 months of storage.
The conditions of data set [4]: average, % of fresh, 10 IC patients and 5 controls, n = 15/8/6/9, hepcidin-20 unreliable (additional peak); for Hepcidin level after one week at -20°C, EDTA plasma: CV (Hep-25/-24/-22/-20) 11/12/11/28.
Description: as §1, §2, §3, §4
Data set [5] is described as follows: in vitro. Conditions: human.
Description: as §1, §2, §3, §4
A short description of data set [6]: in vitro. To be noted: human. This is another data set of the same source.
Description: as §1, §2, §3, §4
Setting [7] is: average, % of fresh, 7 days, heparin plasma, 10 IC patients, n = 10/8/7/8.
Setting [8] is: average, % of fresh, heparin plasma, 10 IC patients, n = 10/8/7/8.
[9] abbreviates: average, % of fresh, 7 days, heparin plasma, 10 IC patients, Complete Mini (Roche), CV (Hep-25/-24/-22/-20) 25/35/9/25, n = 10/8/7/8.
Where [10] appears, read: average, % of fresh, heparin plasma, 10 IC patients, Complete Mini (Roche), 1 tablet in 200 µL PBS, 20 µL per 1 ml plasma, CV (Hep-25/-24/-22/-20) 8/30/4/14, n = 10/8/7/8.
[11] abbreviates: results <1.0 nM deleted, n = 15/8/6/9.

The structures appear in SMILES notation. Bridge positions count the residues as written; N and C are the ends. Peptide text beside a SMILES is read from it.
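For Hepcidin level after one month at -20°C, EDTA plasma in this document: hepcidin in stored plasma or serum quantified by MALDI-TOF MS against a heavy hepcidin-25 internal standard, expressed relative to concentrations in freshly collected samples.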
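For Hepcidin level after one week at -20°C, EDTA plasma in this document: hepcidin in stored plasma or serum quantified by MALDI-TOF MS against a heavy hepcidin-25 internal standard, expressed relative to concentrations in freshly collected samples.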

Regarding `CC[C@H](C)[C@H](N)C(=O)N[C@H]1CSSC[C@@H](C(=O)N[C@@H](CCCCN)C(=O)N[C@H](C(=O)O)[C@@H](C)O)NC(=O)[C@@H]2CSSC[C@H](NC(=O)[C@H](Cc3ccccc3)NC(=O)[C@H]([C@@H](C)CC)NC1=O)C(=O)N[C@H]1CSSC[C@H](NC(=O)[C@H](CCCCN)NC(=O)[C@H](CO)NC(=O)[C@H](CCCNC(=N)N)NC(=O)[C@H](Cc3c[nH]cn3)NC(=O)[C@@H]3CSSC[C@H](NC(=O)CNC1=O)C(=O)N3)C(=O)NCC(=O)N[C@@H](CCSC)C(=O)N2` [Hepcidin-20] (H-ICIFCCGCCHRSKCGMCCKT-OH; disulfide 2-18, 5-17, 6-14, 8-9 (inferred); N-terminus and C-terminus assumed), in data set [1], the “activity relative to hepcidin-24 (fold lower)” value is “at least 10 fold” and the “potency as inducer of ferroportin degradation” value (shortened to “potency as inducer”) is on record as “significantly less potent inducer of ferroportin degradation than hepcidin-25”. For the same compound, in data set [2] (average, 7 days), the “Hepcidin level after one week at RT” value was found to be 138%. In addition, the “Hepcidin level after one day at RT” value in data set [2] (average) came out at 115%. In data set [2] (setting [7]), the “Hepcidin level after one week at RT, without protease inhibitors” value is 164%. The “Hepcidin level after one day at RT, without protease inhibitors” value in data set [2] (setting [8]) is 141%. In addition, in data set [2] (heparin plasma, healthy controls, 0–7 days), the “level of isoform emerging in control samples at RT” value was “below 1 nM”. Besides, the remaining at 168 h in data set [2] (setting [9]) is 114%. Besides, the remaining at 1 day in data set [2] (setting [10]) amounted to 118%. Besides, the “Hepcidin level after one day at 4°C, EDTA plasma” value in data set [3] (setting [11]) is given as 94%. Moreover, the “Hepcidin level after one week at 4°C, heparin plasma” value in data set [3] (7 days, CV (Hep-25/-24/-22/-20) 5/8/8/21, n = 15/7/6/10) is listed as 114%. Moreover, the “Hepcidin level after one week at 4°C, EDTA plasma” value in data set [3] (7 days, CV (Hep-25/-24/-22/-20) 9/8/18/21, n = 15/8/6/9, hepcidin-20 in stored EDTA plasma unreliable (additional peak)) worked out at 165%. For the same compound, the “Hepcidin level after one month at -20°C, EDTA plasma” value in data set [4] (4 weeks, CV (Hep-25/-24/-22/-20) 9/11/19/40) is 210%. The “Hepcidin level after one week at -20°C, EDTA plasma” value in data set [4] stood at 183%. Moreover, the remaining at 672 h in data set [5] (heparin plasma) was found to be 102%.

For `CC[C@H](C)[C@@H]1NC(=O)[C@@H](NC(=O)[C@@H](NC(=O)[C@@H]2CCCN2C(=O)[C@@H](N)Cc2ccccc2)[C@@H](C)CC)CSSC[C@@H](C(=O)N[C@@H](CCCCN)C(=O)N[C@H](C(=O)O)[C@@H](C)O)NC(=O)[C@@H]2CSSC[C@H](NC(=O)[C@H](Cc3ccccc3)NC1=O)C(=O)N[C@H]1CSSC[C@H](NC(=O)[C@H](CCCCN)NC(=O)[C@H](CO)NC(=O)[C@H](CCCNC(=N)N)NC(=O)[C@H](Cc3c[nH]cn3)NC(=O)[C@@H]3CSSC[C@H](NC(=O)CNC1=O)C(=O)N3)C(=O)NCC(=O)N[C@@H](CCSC)C(=O)N2` [Hepcidin-22] (H-FPICIFCCGCCHRSKCGMCCKT-OH; disulfide 4-20, 7-19, 8-16, 10-11), the “activity relative to hepcidin-24 (fold lower)” value in data set [1] is recorded as “at least 10 fold”. In data set [1], the “potency as inducer” value is recorded as “significantly less potent inducer of ferroportin degradation than hepcidin-25”. Further, the “Hepcidin level after one week at RT” value in data set [2] (average, 7 days) is given as 150%. Further, the “Hepcidin level after one day at RT” value in data set [2] (average) amounted to 127%. Besides, in data set [2] (setting [7]), the “Hepcidin level after one week at RT, without protease inhibitors” value is recorded as 160%. Besides, the “Hepcidin level after one day at RT, without protease inhibitors” value in data set [2] (setting [8]) is reported as 135%. Further, the results for the remaining at 168 h in data set [2] (setting [9]), in data set [6] (EDTA plasma) and in data set [6] (heparin plasma) were 117%, 106% and 96%, respectively. The remaining at 1 day in data set [2] (setting [10]) came out at 105%. Also, in data set [3] (results <1.0 nM deleted, CV (Hep-25/-24/-22/-20) 7/5/13/20, n = 15/7/6/10), the “Hepcidin level after one day at 4°C, heparin plasma” value is listed as 104%. In addition, the “Hepcidin level after one day at 4°C, EDTA plasma” value in data set [3] (setting [11]) is listed as 104%. Also, the remaining at 1 week in data set [5] (EDTA plasma) is 98%. Besides, the results for the remaining at 672 h in data set [5] (EDTA plasma) and in data set [5] (heparin plasma) were 96% and 89%, respectively.

In data set [1], `CC[C@H](C)[C@@H]1NC(=O)[C@@H](NC(=O)[C@@H](NC(=O)[C@@H]2CCCN2C(=O)[C@H](Cc2ccccc2)NC(=O)[C@H](Cc2c[nH]cn2)NC(=O)[C@@H](N)[C@@H](C)O)[C@@H](C)CC)CSSC[C@@H](C(=O)N[C@@H](CCCCN)C(=O)N[C@H](C(=O)O)[C@@H](C)O)NC(=O)[C@@H]2CSSC[C@H](NC(=O)[C@H](Cc3ccccc3)NC1=O)C(=O)N[C@H]1CSSC[C@H](NC(=O)[C@H](CCCCN)NC(=O)[C@H](CO)NC(=O)[C@H](CCCNC(=N)N)NC(=O)[C@H](Cc3c[nH]cn3)NC(=O)[C@@H]3CSSC[C@H](NC(=O)CNC1=O)C(=O)N3)C(=O)NCC(=O)N[C@@H](CCSC)C(=O)N2` [Hepcidin-24] (H-THFPICIFCCGCCHRSKCGMCCKT-OH; disulfide 6-22, 9-21, 10-18, 12-13) yielded an EC50 of 192 nM. In addition, the “activity relative to hepcidin-25 (fold lower)” value in data set [1] (relative to hepcidin-25) turned out to be 10 fold. Besides, the “potency as inducer” value in data set [1] was “significantly less potent inducer of ferroportin degradation than hepcidin-25”. Also, the “Hepcidin level after one week at RT” value in data set [2] (average, 7 days) came out at 104%. The “Hepcidin level after one day at RT” value in data set [2] (average) turned out to be 120%. The “Hepcidin level after one week at RT, with protease inhibitors” value in data set [2] (setting [9]) is listed as 133%. Moreover, in data set [2] (setting [7]), the “Hepcidin level after one week at RT, without protease inhibitors” value worked out at 116%. For the same compound, the “Hepcidin level after one day at RT, with protease inhibitors” value in data set [2] (setting [10]) amounted to 122%. Further, the “Hepcidin level after one day at RT, without protease inhibitors” value in data set [2] (setting [8]) is reported as 128%. The “Hepcidin level after one week at -20°C, EDTA plasma” value in data set [4] stood at 96%. For the same compound, the remaining at 168 h came out at 113% in data set [6] (EDTA plasma) and 106% in data set [6] (heparin plasma). Also, the remaining at 672 h in data set [5] (EDTA plasma) amounted to 91%; in data set [5] (heparin plasma) it was 114%.
